Measured values from ChEMBL document CHEMBL1201862, “PubChem BioAssay data set” (2004).
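Results reflect a 48-hour exposure of cells in 96-well plates to compound at five concentrations. GI50 marks 50% less growth.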 Active and inactive are the calls of the source. Cut-off read from the data, not from the text of the source: active = GI50 up to about 1.1 µM and inactive = higher.

Assays:
Assay in all cases: growth of human tumour cells (NCI), 48 h
SK-MEL-5 = tested on: SK-MEL-5
SF-268 = tested on: SF-268
U-251 = tested on: U-251
HOP-62 = tested on: HOP-62
SN12C = tested on: SN12C
HL-60 = tested on: HL-60
CCRF-CEM = tested on: CCRF-CEM
SF-539 = tested on: SF-539
SNB-75 = tested on: SNB-75
Malme-3M = tested on: Malme-3M
CAKI-1 = tested on: CAKI-1
SNB-19 = tested on: SNB-19
LOX IMVI = tested on: LOX IMVI
UACC-257 = tested on: UACC-257
SK-MEL-2 = tested on: SK-MEL-2

Measured: GI50

CC(C)=CCC/C(C)=C/CC/C(C)=C/CC/C=C(\C)CC/C=C(\C)CCC1SC1(C)C (stereo unspecified)
inactive: SK-MEL-5 > 100 µM | SF-268 > 100 µM | U-251 > 100 µM | HOP-62 > 100 µM | SN12C > 100 µM | HL-60 > 100 µM | CCRF-CEM > 100 µM | SF-539 > 100 µM | SNB-75 > 100 µM | Malme-3M > 100 µM | CAKI-1 > 100 µM | SNB-19 > 100 µM | LOX IMVI > 100 µM | UACC-257 > 100 µM | SK-MEL-2 > 100 µM

Cn1c(=O)c(C(c2ccc([N+](=O)[O-])cc2)c2c(O)c3ccccc3n(C)c2=O)cc2ccccc21 (stereo unspecified)
inactive: SK-MEL-5 51.3 µM | SF-268 53.1 µM | U-251 18.2 µM | HOP-62 27.7 µM | SN12C 57.7 µM | HL-60 36.1 µM | SF-539 43.6 µM | SNB-75 23 µM | Malme-3M 26.7 µM | CAKI-1 47.8 µM | SNB-19 40.3 µM | LOX IMVI 35.2 µM | UACC-257 20.5 µM | SK-MEL-2 59.6 µM

CCCCCCCCCCCCCCCCOC(=O)C(C(=O)OCCCCCCCCCCCCCCCC)[N+](C)(C)CCOC(C)=O
inactive: SK-MEL-5 19.7 µM | SF-268 17.9 µM | U-251 12 µM | HOP-62 10.9 µM | SN12C 18.4 µM | HL-60 2.11 µM | CCRF-CEM 10.3 µM | SNB-75 12.9 µM | Malme-3M 21.2 µM | CAKI-1 12.6 µM | SNB-19 13.4 µM | LOX IMVI 21.8 µM | UACC-257 19.1 µM | SK-MEL-2 20.1 µM

O=C1OC(/C=C/c2ccccc2)C(=O)C1=O (stereo unspecified)
inactive: SF-268 > 100 µM | U-251 > 100 µM | HOP-62 > 100 µM | HL-60 > 100 µM | CCRF-CEM > 100 µM | SF-539 > 100 µM | SNB-75 > 100 µM | Malme-3M > 100 µM | SNB-19 > 100 µM | UACC-257 > 100 µM | SK-MEL-2 > 100 µM

Cn1nc(-c2ccccc2)c2c(/C=C/c3ccc(F)cc3)onc2c1=O
inactive: SK-MEL-5 > 100 µM | SF-268 > 100 µM | U-251 64 µM | HOP-62 > 100 µM | SN12C 88.1 µM | HL-60 5.92 µM | CCRF-CEM > 100 µM | SF-539 61.9 µM | CAKI-1 27.4 µM | LOX IMVI 90.4 µM

COC(=O)[C@@H]1C(=O)O[C@@H](c2ccc3c(c2)OCO3)[C@@H]1C(=O)OC.COC(=O)[C@H]1C(=O)O[C@@H](c2ccc3c(c2)OCO3)[C@@H]1C(=O)OC
inactive: SK-MEL-5 > 100 µM | SF-268 > 100 µM | U-251 > 100 µM | HOP-62 > 100 µM | SN12C > 100 µM | HL-60 > 100 µM | CCRF-CEM > 100 µM | SF-539 > 100 µM | SNB-75 > 100 µM | Malme-3M > 100 µM | CAKI-1 > 100 µM | SNB-19 > 100 µM | LOX IMVI > 100 µM | UACC-257 > 100 µM

NC(=O)Nc1c([N+](=O)[O-])cc(C(F)(F)F)cc1[N+](=O)[O-]
inactive: SK-MEL-5 49.3 µM | SF-268 > 100 µM | U-251 > 100 µM | HOP-62 > 100 µM | SN12C > 100 µM | HL-60 33.7 µM | CCRF-CEM > 100 µM | SF-539 > 100 µM | CAKI-1 > 100 µM | SNB-19 > 100 µM | LOX IMVI 44.7 µM | UACC-257 72.3 µM | SK-MEL-2 > 100 µM

C=CCN(N=O)C(=O)ON1C(=O)CCC1=O
inactive: SF-268 > 100 µM | U-251 17.7 µM | HOP-62 > 100 µM | SN12C > 100 µM | HL-60 > 100 µM | CCRF-CEM 85.9 µM | SF-539 > 100 µM | SNB-75 75.9 µM | Malme-3M > 100 µM | SNB-19 > 100 µM | LOX IMVI > 100 µM | UACC-257 > 100 µM | SK-MEL-2 > 100 µM

COc1ccc(C2CCc3cc4c(cc3/C2=N/OC(C)=O)OCO4)cc1OC (stereo unspecified)
inactive: SK-MEL-5 8.65 µM | SF-268 12.9 µM | U-251 23.8 µM | HOP-62 40.3 µM | SN12C 26.9 µM | CCRF-CEM 25.6 µM | SF-539 17.9 µM | SNB-75 18.3 µM | Malme-3M 20.1 µM | SNB-19 39.3 µM | LOX IMVI 15.9 µM | UACC-257 18.4 µM | SK-MEL-2 27.8 µM

c1ccc(/N=C2\c3ccccc3C3=NCCCN32)cc1
inactive: SK-MEL-5 28 µM | SF-268 81.5 µM | U-251 > 100 µM | HOP-62 67.6 µM | SN12C > 100 µM | CCRF-CEM 61.1 µM | SF-539 49.3 µM | SNB-75 50.9 µM | Malme-3M 62.8 µM | CAKI-1 27.1 µM | SNB-19 85.9 µM | LOX IMVI 47.1 µM | UACC-257 40.4 µM | SK-MEL-2 86.5 µM

CN(C)c1ccc(/C=c2\sc3nc4ccccc4n3c2=O)cc1
inactive: SK-MEL-5 > 100 µM | SF-268 > 100 µM | U-251 > 100 µM | HOP-62 > 100 µM | SN12C > 100 µM | HL-60 > 100 µM | SF-539 > 100 µM | SNB-75 32.8 µM | Malme-3M > 100 µM | CAKI-1 > 100 µM | SNB-19 > 100 µM | LOX IMVI > 100 µM | UACC-257 > 100 µM | SK-MEL-2 > 100 µM

C/C=C1/C=CC2c3[nH]c4ccccc4c3CCN2C1 (stereo unspecified)
inactive: SK-MEL-5 138 µM | SF-268 > 400 µM | U-251 > 400 µM | HOP-62 > 400 µM | SN12C > 400 µM | HL-60 > 400 µM | CCRF-CEM > 400 µM | SF-539 > 400 µM | Malme-3M > 400 µM | CAKI-1 > 400 µM | SNB-19 187 µM | LOX IMVI > 400 µM | UACC-257 243 µM | SK-MEL-2 > 400 µM

CC1(C)CCC(Sc2ccccc2)O1 (stereo unspecified)
inactive: SK-MEL-5 > 100 µM | SF-268 > 100 µM | U-251 > 100 µM | HOP-62 > 100 µM | SN12C > 100 µM | HL-60 > 100 µM | CCRF-CEM > 100 µM | SF-539 > 100 µM | SNB-75 92 µM | CAKI-1 > 100 µM | SNB-19 > 100 µM | LOX IMVI > 100 µM | UACC-257 > 100 µM | SK-MEL-2 > 100 µM

O=C(NCCOCCO)c1ccc(O)cc1
inactive: SK-MEL-5 > 100 µM | SF-268 > 100 µM | U-251 > 100 µM | HOP-62 > 100 µM | SN12C > 100 µM | HL-60 > 100 µM | CCRF-CEM > 100 µM | SF-539 > 100 µM | LOX IMVI > 100 µM

Nc1ccccc1N
inactive: SK-MEL-5 > 100 µM | SF-268 > 100 µM | U-251 > 100 µM | HOP-62 > 100 µM | SN12C > 100 µM | HL-60 25.6 µM | CCRF-CEM 21.1 µM | SF-539 > 100 µM | SNB-75 > 100 µM | Malme-3M > 100 µM | CAKI-1 > 100 µM | SNB-19 > 100 µM | LOX IMVI > 100 µM | SK-MEL-2 > 100 µM
